Laboratory results taken from ChEMBL document CHEMBL1649430, “Antimicrobial susceptibility of Mycoplasma pneumoniae isolates and molecular analysis of macrolide-resistant strains from Shanghai, China” (2009).
Values after ≈ are worked out from the molar mass of the structure shown.

How the values were obtained:
[1] = system: Mycoplasmoides pneumoniae; test: Antimicrobial activity against Mycoplasma pneumoniae ATCC 15531 by broth microdilution method
[2] = system: Mycoplasmoides pneumoniae; test: Antimicrobial activity against macrolide-resistant Mycoplasma pneumoniae clinical isolates obtained from bronchial aspirations expressing 23S rRNA A2063G mutant gene and P1 RFLP type I gene by broth microdilution method; format: functional

SMILES | MIC [1] [µg/mL] | MIC [2] [µg/mL] | MIC50 [2] [µg/mL] | MIC90 [2] [µg/mL]
O=C(O)c1cn(C2CC2)c2cc(N3CCNCC3)c(F)cc2c1=O [CIPROFLOXACIN] | 0.25 (≈ 0.754 µM) | – | – | –
COc1c(N2C[C@@H]3CCCN[C@@H]3C2)c(F)cc2c(=O)c(C(=O)O)cn(C3CC3)c12 [MOXIFLOXACIN] | 0.06 (≈ 0.149 µM) | – | – | –
CN(C)[C@@H]1C(O)=C(C(N)=O)C(=O)[C@@]2(O)C(O)=C3C(=O)c4c(O)cccc4[C@@](C)(O)[C@H]3C[C@@H]12 [TETRACYCLINE] | 0.06 (≈ 0.135 µM) | 0.015 (≈ 0.0338 µM) | 0.06 (≈ 0.135 µM) | 0.125 (≈ 0.281 µM)
C[C@H]1c2cccc(O)c2C(=O)C2=C(O)[C@]3(O)C(=O)C(C(N)=O)=C(O)[C@@H](N(C)C)[C@@H]3[C@@H](O)[C@@H]21.O [DOXYCYCLINE] | 0.03 | ≤ 0.007 | 0.06 | 0.125
CO[C@@H]1[C@@H](O[C@@H]2O[C@H](C)[C@@H](O[C@H]3C[C@@](C)(O)[C@@H](OC(=O)CC(C)C)[C@H](C)O3)[C@H](N(C)C)[C@H]2O)[C@@H](CC=O)C[C@@H](C)[C@@H](O)/C=C/C=C/C[C@@H](C)OC(=O)C[C@H]1OC(C)=O [JOSAMYCIN] | ≤ 0.007 | ≤ 0.007 | 2 (≈ 2.42 µM) | 4 (≈ 4.83 µM)
CC[C@H]1OC(=O)[C@H](C)[C@@H](O[C@H]2C[C@@](C)(OC)[C@@H](O)[C@H](C)O2)[C@H](C)[C@@H](O[C@@H]2O[C@H](C)C[C@H](N(C)C)[C@H]2O)[C@](C)(O)C[C@@H](C)CN(C)[C@H](C)[C@@H](O)[C@]1(C)O [AZITHROMYCIN] | ≤ 0.007 | ≤ 0.007 | 16 (≈ 21.4 µM) | 64 (≈ 85.4 µM)
CN(C)c1ccc(O)c2c1C[C@H]1C[C@H]3[C@H](N(C)C)C(O)=C(C(N)=O)C(=O)[C@@]3(O)C(O)=C1C2=O [MINOCYCLINE] | 0.06 (≈ 0.131 µM) | ≤ 0.007 | 0.06 (≈ 0.131 µM) | 0.125 (≈ 0.273 µM)
C[C@H]1COc2c(N3CCN(C)CC3)c(F)cc3c(=O)c(C(=O)O)cn1c23.C[C@H]1COc2c(N3CCN(C)CC3)c(F)cc3c(=O)c(C(=O)O)cn1c23.O [LEVOFLOXACIN] | 0.25 | 0.015 | 0.25 | 0.5
CC[C@H]1OC(=O)[C@H](C)[C@@H](O[C@H]2C[C@@](C)(OC)[C@@H](O)[C@H](C)O2)[C@H](C)[C@@H](O[C@@H]2O[C@H](C)C[C@H](N(C)C)[C@H]2O)[C@](C)(O)C[C@@H](C)C(=O)[C@H](C)[C@@H](O)[C@]1(C)O [ERYTHROMYCIN] | ≤ 0.007 | ≤ 0.007 | > 128 | > 128
CC[C@H]1OC(=O)[C@H](C)[C@@H](O[C@H]2C[C@@](C)(OC)[C@@H](O)[C@H](C)O2)[C@H](C)[C@@H](O[C@@H]2O[C@H](C)C[C@H](N(C)C)[C@H]2O)[C@](C)(OC)C[C@@H](C)C(=O)[C@H](C)[C@@H](O)[C@]1(C)O [CLARITHROMYCIN] | ≤ 0.007 | ≤ 0.007 | 128 (≈ 171 µM) | > 128
